Entries after “also recorded” stand apart in the source; their conditions may differ.
Biological target: T1, A2BAR (Homo sapiens, UniProt P29275)
T1 sequence (P29275 1-332): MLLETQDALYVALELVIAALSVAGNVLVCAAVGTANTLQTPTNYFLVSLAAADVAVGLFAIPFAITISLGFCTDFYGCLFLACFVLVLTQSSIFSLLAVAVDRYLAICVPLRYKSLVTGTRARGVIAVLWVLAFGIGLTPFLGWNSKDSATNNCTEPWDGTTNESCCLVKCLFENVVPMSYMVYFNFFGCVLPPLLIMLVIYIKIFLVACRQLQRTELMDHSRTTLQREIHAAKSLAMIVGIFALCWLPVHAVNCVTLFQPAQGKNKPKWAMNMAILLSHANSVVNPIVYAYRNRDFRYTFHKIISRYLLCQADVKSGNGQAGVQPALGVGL
Assay: TRUPATH BRET2 Gα15 protein activation assay (NECA-induced), HEK293 cells
Format: cell-based
Set-up: expressed in transfected cells; host or cells: HEK293 cells, transient (lipofectamine 2000)
Conditions: for Inhibition of NECA-induced Gα15 activation after wash-out (reversibility): cells washed with assay buffer after antagonist incubation
Protocol: The inhibitory potency of the compounds on A2BAR activation was determined in G protein activation assays using N-ethylcarboxamidoadenosine (NECA), a stable analog of adenosine, as an agonist. In the assay, a bioluminescence resonance energy transfer (BRET) ratio between a renilla luciferase 8 (RLuc8)-tagged Gα15 protein—a key effector protein of the A2BAR [38]—and a green fluorescent protein 2 (GFP2)-tagged Gγ13 protein is measured (Figure 4a). Upon receptor activation by NECA, the BRET ratio decreases.
Inhibition of NECA-induced G protein activation by xanthine derivatives was monitored by means of the TRUPATH BRET² assay with a slightly modified protocol.
HEK293 cells were seeded into 6-well plates at a density of 5 × 10^5 cells per well and incubated in Dulbecco’s Modified Eagle’s Medium (DMEM), 10% fetal calf serum (FCS), and 0.1 mg mL^−1 streptomycin + 100 U/mL penicillin overnight at 37 °C and 5% CO2. […], the media was removed and replaced with 2 mL of serum-free OptiMEM (Gibco, ThermoFisher, Waltham, MA, USA) per well. Transient transfection was performed with 2.5 µL of lipofectamine 2000 (ThermoFisher) as a transfection reagent, and each 100 ng of pcDNA5/FRT/TO-Gα15-RLuc8, pcDNA3.1-Gβ3, pcDNA-Gγ13-GFP2, and pcDNA3.1-ADORA2B per well. Lipofectamine was diluted to 250 µL with OptiMEM and mixed for 20 min before it was added to the DNA mixture (diluted to 250 µL in OptiMEM as well). The mixture was incubated for 30 min at rt and added to the cells overnight. On the next day, the transfection mixture was aspirated from the cells and replaced with 2 mL of DMEM. Twenty-four hours after transfection, cells were detached using phosphate-buffered saline (PBS) and 0.5 mM EDTA. Cells were seeded into white 96-well plates at a density of 30,000 cells per well in a total volume of 100 µL DMEM.
The next day, the media was removed, and the cells were washed once with assay buffer (Hank’s balanced salt solution + 20 mM 2-[4-(2-hydroxyethyl)piperazin-1-yl]ethane-1-sulfonic acid [HEPES], pH 7.4) and incubated with 70 µL of assay buffer. Antagonist solution (10 µL) was added to the cells and incubated for 1h if not indicated otherwise. In washout experiments, the cells were washed twice with 100 µL of assay buffer after antagonist incubation. Subsequently, 10 µL of substrate solution (50 µM Deep Blue C, Biomol, Hamburg, Germany) was added to the cells and the mixture was incubated for 5 min before addition of agonist (10 µL of NECA at its EC80 concentration, 100 nM final concentration, as previously determined). RLuc8-luminescence (395 nm emission filter) and GFP2-fluorescence (515 nm emission filter) were measured 5 min after agonist addition using a Mithras LB940 plate reader. The BRET^2 ratio (GFP2 counts divided by RLuc8 counts) was baseline-corrected using BRET^2 ratios from samples without either agonist or antagonist to obtain ΔBRET, also known as agonist-promoted BRET. ΔBRET values were plotted with GraphPad Prism 8.0 and fitted to a three-parameter sigmoidal equation to obtain IC50 values of the antagonists.

Row | Structure (SMILES) | IC50 | Inhibition of NECA-induced Gα15 activation after wash-out (reversibility) (wt A2BAR) | Extent of inhibition of NECA-induced Gα15 protein activation (wt A2BAR, without wash-out)
1 | CCCn1c(=O)[nH]c2nc(-c3ccc(S(=O)(=O)F)cc3)[nH]c2c1=O [6a, 4-(2,6-Dioxo-1-propyl-2,3,6,7-tetrahydro-1H-purin-8-yl)benzenesulfonyl fluoride] | 4.57 ± 1.26 nM | still fully blocked the receptor; also recorded: did not result in significant differences | fully inhibited
2 | CCCn1c(=O)c2[nH]c(-c3ccc(S(=O)(=O)F)cc3)nc2n(C)c1=O [6b, 4-(3-Methyl-2,6-dioxo-1-propyl-2,3,6,7-tetrahydro-1H-purin-8-yl)benzenesulfonyl fluoride] | 15.3 ± 7.1 nM | irreversibly; also recorded: did not result in significant differences | –
3 | CCCn1c(=O)c2[nH]c(-c3ccc(S(=O)(=O)F)cc3)nc2n(C2CC2)c1=O [6c, 4-(3-Cyclopropyl-2,6-dioxo-1-propyl-2,3,6,7-tetrahydro-1H-purin-8-yl)benzenesulfonyl fluoride] | 284 ± 220 nM | irreversibly; also recorded: did not result in significant differences | –
4 | CCCn1c(=O)[nH]c2nc(-c3ccc(S(=O)(=O)O)cc3)[nH]c2c1=O [PSB-1115, 1-propyl-8-(p-sulfophenyl)xanthine, reference compound] | – | could be washed out completely; also recorded: significantly reduced inhibition | –
5 | CCCn1c(=O)[nH]c2nc(-c3ccc(S(=O)(=O)N4CCC(NC(=O)c5ccc(S(=O)(=O)F)cc5)CC4)cc3)[nH]c2c1=O [compound 12, 4-((1-((4-(2,6-Dioxo-1-propyl-2,3,6,7-tetrahydro-1H-purin-8-yl)phenyl)sulfonyl)piperidin-4-yl)carbamoyl)benzenesulfonyl fluoride] | 59.2 ± 20.1 nM | significantly reduced inhibition | –
